Series [1] has as its system Pseudomonas aeruginosa strain PA14. Briefly: Alkylquinolone quantification, strain PA14. Type of series: cell-based. How it is done:
1.2.2 Pyocyanin assay in Pseudomonas aeruginosa
Inhibition of pyocyanin biosynthesis of compounds was measured spectrophotometrically as previously described.[2] Pseudomonas aeruginosa PA14 was grown in rich medium for 16 h under agitation with and without compound. Pyocyanin was extracted from cultures with chloroform, then re-extracted with 0.2 M HCl and quantified photometrically (520 nm). IC50 values were determined from dose-response curves of compounds using at least six different concentrations and fitting with non-linear regression analysis (OriginPro 2017–2020, Originlab Corporation).
1.2.3 Alkylquinolone quantification
Inhibition of alkylquinolone (AQ) signal molecule biosynthesis of compound 24 was analyzed via LC-ESI-MS/MS. Extracellular concentrations of the AQs PQS (2-heptyl-3-hydroxy-4-quinolone), HHQ (2-heptyl-4-quinolone), HQNO (N-oxo-2-heptyl-4-Hydroxyquinoline), 2-AA (2-aminoacetophenone) were measured from supernatants of cultures incubated with or without compound for 17 h. 5,6,7,8-Tetradeutero-2-heptyl-4(1H)-quinolone (HHQ-d4) was added as internal standard before sample preparation. IC50 values were calculated according to the procedure of the pyocyanin assay (see above). LC-ESI-MS/MS conditions were as follows: Dionex Ultimate 3000 HPLC instrument parameters: Zorbax Eclipse XDB 80 Å C18 5 µm 4.6 x 50 mm (Agilent, Santa Clara, CA, USA); eluent A – H2O with 0.1% trifluoroacetic acid (TFA), 0.1% pentafluoropropionic acid (PFPA), 0.1% heptafluorobutyric acid (HFBA); eluent B – acetonitrile with 0.1% TFA, 0.1% PFPA, 0.1% HFBA; isocratic 50% A; flow – 0.7 mL/min. TSQ Quantum Access Max (Thermo Fisher Scientific, Waltham, MA, USA) instrument parameters: Spray voltage 3500 V, vaporizer temperature 370 °C, sheath gas pressure 35 psi, aux gas pressure 30 psi, capillary temperature 270 °C, collision pressure 1.5 mTorr, positive ionization mode. For AQ analyte reaction monitoring parameters please see Table S1.
Table S1. LC-ESI-MS/MS reaction monitoring parameters of AQ analytes in positive ionization mode. […]
Six replicates per sample were distributed evenly across the plate, with every row containing one replicate of each sample. The well plate was covered with the peg lid. One layer of parafilm was wrapped around the biofilm inoculator. The inoculator was incubated at 37 °C, static for 24 h with a beaker of H2O ensuring humidity. Alternatively, the plate was incubated using only LB for 8 h prior to addition of DMSO/24 to give 1% DMSO, followed by another 16 h incubation under the same […]
After 24 h, the plate was removed from the incubator and the peg lid was transferred to a fresh 96 well plate (Nunc U bottom, Thermo Fisher, Dreieich, Germany) containing the respective target

Series [2] is described as follows: Metabolic stability in mouse liver S9 fractions. Type of series: in vitro ADME. Particulars: liver S9 fraction, read-out: Mouse liver S9 t½.
The target of series [3] is T1, NET human norepinephrine transporter (Homo sapiens, UniProt P23975).
T1 construct: Eurofins 302000
Kind of series: NET functional antagonist uptake assay (Eurofins). Type of series: cell-based. How it is done:
(§1) 1.4.2 Further functional off-target assays (Eurofins)
(§2) Table S8. Compound 24 was further tested in the following functional assays at Eurofins.
ASSAY NAME ESTIMATED IC50 [µM]
NET human norepinephrine transporter functional antagonist uptake >10 µM […]
(§3) FLIPR Assay expressed in HEK293 cells
(§4) GABAA α5/β3/γ2 ionotropic receptor (human GABRA5, GABRB3, >30
(§5) and GABRG2 genes, expressed in HEK293 cells

The target of series [4] is T2, Nav1.5 human sodium ion channel (Homo sapiens, UniProt Q14524).
T2 construct: Eurofins CYL8004QP2DR
Briefly: Nav1.5 automated patch clamp CiPA assay (Eurofins). Type of series: cell-based. How it is done:
as §1, §2
ASSAY NAME ESTIMATED IC50 [µM] […]
Nav1.5 human sodium ion channel cell based automated patch clamp >30 µM
CiPA assay (CYL8004QP2DR) […]
as §3, §4, §5
On the technique in general: In patch-clamp work, channel activity is measured electrically.

For the next series, the target named is T3, TRPV4 channel (Homo sapiens, UniProt Q9HBA0).
T3 construct: host or cells: CHO cells
Kind of series: Ion channel profiling at Charles River: TRPV4. It is filed as cell-based. The following applies: expressed in CHO cells; read-out: ESTIMATED IC50. How it is done:
1.4.3 Ion Channel Profiling at Charles River
Table S9. Compound 24 was tested against the following ion channels at Charles River Laboratories. […]
ScreenPatch Assay Kv1.3 potassium channel (human KCNA3 gene) expressed in CHO […]
as §3
GABAA α5/β3/γ2 ionotropic receptor (human GABRA5, GABRB3, >30 and GABRG2 genes, expressed in HEK293 cells […]
An increase in the number of colonies of at least two-fold over baseline (mean + SD of the vehicle control) and a dose response indicate a positive response. An […]
different from the vehicle control.
Where indicated, S9 fraction from the livers of Aroclor 1254-treated rats were included in the incubation at a final concentration of 4.5%. A NADPH-regenerating system was also included to ensure a steady supply of reducing equivalents.

A further series deals with Na+ channel (site 2). Briefly: Cerep panel binding assay. On the set-up: species or system rat. The following applies: 10 µM, antagonist radioligand. Here is the method:
(§6) 1.4 Safety Pharmacology of Compound 24
(§7) 1.4.1 Cerep panel (Eurofins)
(§8) Compound 24 was further profiled for its off-target interactions against a panel of 44 targets. The
(§9) screening was done by Eurofins Pharma Discovery within the SafetyScreen44 Panel (Cerep, ITEM
P270). In all assays binding/functional inhibition was determined at 10 µM.
Table S6. […]

The next series has as its target T4, COX-1 (h) (Homo sapiens, UniProt P23219).
T4 construct: Eurofins Pharma Discovery (CRO that ran the assay) SafetyScreen44 Panel (Cerep, ITEM P270)
Kind of series: Cerep panel functional assay. It is filed as biochemical. How it is done:
as §6, §7, §8, §9
(§10) P270). In all assays binding/functional inhibition was determined at 10 µM. […]

The next series addresses T5, COX-2 (h) (Homo sapiens, UniProt P35354).
T5 construct: Eurofins Pharma Discovery (CRO that ran the assay) SafetyScreen44 Panel (Cerep, ITEM P270)
Briefly: Cerep panel functional assay. Type of series: biochemical. How it is done: as §6, §7, §8, §9, §10

A further series deals with T6, Lck kinase (h) (Homo sapiens, UniProt P06239).
T6 construct: Eurofins Pharma Discovery (CRO that ran the assay) SafetyScreen44 Panel (Cerep, ITEM P270)
Kind of series: Cerep panel functional assay. It is filed as biochemical. Here is the method: as §6, §7, §8, §9, §10

The next series concerns the target T7, PDE3A (h) (Homo sapiens, UniProt Q14432).
T7 construct: Eurofins Pharma Discovery (CRO that ran the assay) SafetyScreen44 Panel (Cerep, ITEM P270)
Briefly: Cerep panel functional assay. It is filed as biochemical. How it is done:
as §6, §7, §8, §9, §10

In another series the target is T8, PDE4D2 (h) (Homo sapiens, UniProt Q08499).
T8 construct: Eurofins Pharma Discovery (CRO that ran the assay) SafetyScreen44 Panel (Cerep, ITEM P270)
Briefly: Cerep panel functional assay. It is filed as biochemical. Here is the method:
as §6, §7, §8, §9, §10

In a further series the target is T9, acetylcholinesterase (h) (Homo sapiens, UniProt P22303).
T9 construct: Eurofins Pharma Discovery (CRO that ran the assay) SafetyScreen44 Panel (Cerep, ITEM P270)
Kind of series: Cerep panel functional assay. Type of series: biochemical. Here is the method:
as §6, §7, §8, §9, §10

Series [5] is described as follows: Kinetic turbidimetric aqueous solubility. The following applies: PBS buffer, kinetic from dmso stock.

SMILES strings stand for the structures. Converted amounts (≈) assume the structure as drawn. “And” between values parts separate entries of the source, which are not always exact repeats. Identical values can stand only once. Like-named read-outs stand apart in the source and are kept apart here.

As a reminder, the IC50 is the concentration at which inhibition is half-maximal. For orientation: inhibition means the drop in the measured response relative to a control, in per cent. As a reminder, the kinetic solubility is solubility judged after dilution from a stock solution rather than from solid.

T8 sequence (Q08499 303-809 limits assumed): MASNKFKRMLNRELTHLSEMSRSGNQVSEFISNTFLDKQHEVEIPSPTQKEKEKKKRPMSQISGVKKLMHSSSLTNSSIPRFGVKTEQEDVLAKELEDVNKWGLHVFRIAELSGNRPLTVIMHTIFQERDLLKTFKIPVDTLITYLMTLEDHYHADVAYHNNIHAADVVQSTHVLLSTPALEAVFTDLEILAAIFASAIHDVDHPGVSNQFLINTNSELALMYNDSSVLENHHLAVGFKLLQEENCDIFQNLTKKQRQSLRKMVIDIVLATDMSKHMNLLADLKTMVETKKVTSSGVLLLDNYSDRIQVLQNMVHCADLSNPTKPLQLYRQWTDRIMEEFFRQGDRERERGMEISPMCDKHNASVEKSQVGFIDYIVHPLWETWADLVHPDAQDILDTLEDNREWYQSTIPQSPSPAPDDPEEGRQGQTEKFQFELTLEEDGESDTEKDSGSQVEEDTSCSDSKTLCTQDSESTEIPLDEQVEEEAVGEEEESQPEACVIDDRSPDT
T7 sequence (Q14432 whole entry): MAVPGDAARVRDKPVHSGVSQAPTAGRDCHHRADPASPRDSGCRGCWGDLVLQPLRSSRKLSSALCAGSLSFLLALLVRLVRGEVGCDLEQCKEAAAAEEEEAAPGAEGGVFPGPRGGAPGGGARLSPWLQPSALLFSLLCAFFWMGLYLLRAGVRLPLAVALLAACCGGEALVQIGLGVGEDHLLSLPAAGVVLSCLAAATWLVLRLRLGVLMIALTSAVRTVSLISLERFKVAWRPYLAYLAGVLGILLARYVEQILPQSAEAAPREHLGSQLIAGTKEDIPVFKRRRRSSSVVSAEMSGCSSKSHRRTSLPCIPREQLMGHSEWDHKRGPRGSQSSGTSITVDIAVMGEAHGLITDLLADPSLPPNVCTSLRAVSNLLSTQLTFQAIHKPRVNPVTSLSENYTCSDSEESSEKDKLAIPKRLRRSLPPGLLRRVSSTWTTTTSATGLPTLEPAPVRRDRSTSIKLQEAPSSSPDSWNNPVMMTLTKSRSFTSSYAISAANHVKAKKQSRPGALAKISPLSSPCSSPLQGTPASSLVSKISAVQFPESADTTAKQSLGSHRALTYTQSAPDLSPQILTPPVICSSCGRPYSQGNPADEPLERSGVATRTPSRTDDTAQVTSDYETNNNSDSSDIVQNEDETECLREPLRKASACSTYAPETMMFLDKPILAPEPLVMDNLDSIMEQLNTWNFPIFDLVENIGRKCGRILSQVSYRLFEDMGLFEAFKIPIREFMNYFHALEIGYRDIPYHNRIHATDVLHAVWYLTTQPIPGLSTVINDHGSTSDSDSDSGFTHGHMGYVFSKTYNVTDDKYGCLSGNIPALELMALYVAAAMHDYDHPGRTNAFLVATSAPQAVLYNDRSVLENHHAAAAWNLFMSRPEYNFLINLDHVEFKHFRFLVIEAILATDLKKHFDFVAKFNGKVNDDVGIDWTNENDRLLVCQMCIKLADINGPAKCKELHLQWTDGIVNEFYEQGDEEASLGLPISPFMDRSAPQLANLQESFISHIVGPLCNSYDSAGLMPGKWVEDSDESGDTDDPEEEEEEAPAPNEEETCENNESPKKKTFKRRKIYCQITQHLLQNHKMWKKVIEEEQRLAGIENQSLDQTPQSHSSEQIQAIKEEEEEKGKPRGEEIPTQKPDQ
T2 sequence (Q14524 whole entry): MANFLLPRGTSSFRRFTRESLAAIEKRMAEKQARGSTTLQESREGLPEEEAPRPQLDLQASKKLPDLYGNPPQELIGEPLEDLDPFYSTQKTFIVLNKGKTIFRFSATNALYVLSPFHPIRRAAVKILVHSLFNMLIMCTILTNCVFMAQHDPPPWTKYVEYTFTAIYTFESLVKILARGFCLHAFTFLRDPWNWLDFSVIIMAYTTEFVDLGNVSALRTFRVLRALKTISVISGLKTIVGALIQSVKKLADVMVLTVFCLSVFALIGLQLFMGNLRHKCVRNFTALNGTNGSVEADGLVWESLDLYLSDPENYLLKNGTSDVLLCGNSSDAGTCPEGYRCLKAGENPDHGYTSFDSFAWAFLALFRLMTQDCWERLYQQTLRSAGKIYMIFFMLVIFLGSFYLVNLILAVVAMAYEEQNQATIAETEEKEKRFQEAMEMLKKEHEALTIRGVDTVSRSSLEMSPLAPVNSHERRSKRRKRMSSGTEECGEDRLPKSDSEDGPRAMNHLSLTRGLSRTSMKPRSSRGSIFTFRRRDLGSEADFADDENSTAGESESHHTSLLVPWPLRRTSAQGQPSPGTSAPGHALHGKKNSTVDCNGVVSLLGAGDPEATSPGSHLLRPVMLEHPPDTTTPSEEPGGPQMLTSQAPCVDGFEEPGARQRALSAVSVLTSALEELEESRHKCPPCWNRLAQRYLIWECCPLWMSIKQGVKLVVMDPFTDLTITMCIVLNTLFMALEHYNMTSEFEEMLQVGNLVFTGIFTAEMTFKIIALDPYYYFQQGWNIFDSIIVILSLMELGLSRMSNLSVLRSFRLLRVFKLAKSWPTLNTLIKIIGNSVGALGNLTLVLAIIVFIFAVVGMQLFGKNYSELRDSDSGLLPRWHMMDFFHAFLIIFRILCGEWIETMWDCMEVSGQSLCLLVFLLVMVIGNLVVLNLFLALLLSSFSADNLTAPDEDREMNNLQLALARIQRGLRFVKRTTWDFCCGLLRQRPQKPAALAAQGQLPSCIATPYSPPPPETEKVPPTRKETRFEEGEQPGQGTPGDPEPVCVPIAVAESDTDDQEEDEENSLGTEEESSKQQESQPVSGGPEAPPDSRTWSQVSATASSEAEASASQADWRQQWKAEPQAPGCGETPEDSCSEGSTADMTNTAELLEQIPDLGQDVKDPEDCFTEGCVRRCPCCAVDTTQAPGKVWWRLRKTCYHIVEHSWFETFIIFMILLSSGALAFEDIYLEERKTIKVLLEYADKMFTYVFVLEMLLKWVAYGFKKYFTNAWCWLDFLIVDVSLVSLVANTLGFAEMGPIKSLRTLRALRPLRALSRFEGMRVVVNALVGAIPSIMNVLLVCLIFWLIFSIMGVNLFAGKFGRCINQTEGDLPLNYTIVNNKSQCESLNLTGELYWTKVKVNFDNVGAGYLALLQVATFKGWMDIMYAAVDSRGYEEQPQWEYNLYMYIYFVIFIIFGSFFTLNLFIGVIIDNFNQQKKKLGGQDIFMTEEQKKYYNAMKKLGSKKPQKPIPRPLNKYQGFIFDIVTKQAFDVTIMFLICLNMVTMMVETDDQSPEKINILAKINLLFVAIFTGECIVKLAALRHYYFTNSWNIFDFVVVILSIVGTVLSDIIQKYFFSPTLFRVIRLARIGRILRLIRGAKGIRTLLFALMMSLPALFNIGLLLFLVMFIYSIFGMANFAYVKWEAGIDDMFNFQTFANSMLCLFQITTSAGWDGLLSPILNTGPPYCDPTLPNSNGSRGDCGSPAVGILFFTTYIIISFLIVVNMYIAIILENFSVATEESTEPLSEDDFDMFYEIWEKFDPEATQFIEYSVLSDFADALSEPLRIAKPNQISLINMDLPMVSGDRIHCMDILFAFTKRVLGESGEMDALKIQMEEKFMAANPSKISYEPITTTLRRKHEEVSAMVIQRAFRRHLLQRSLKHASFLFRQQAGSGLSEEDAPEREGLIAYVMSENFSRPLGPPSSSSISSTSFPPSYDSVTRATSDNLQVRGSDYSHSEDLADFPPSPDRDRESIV
T3 sequence (Q9HBA0 whole entry): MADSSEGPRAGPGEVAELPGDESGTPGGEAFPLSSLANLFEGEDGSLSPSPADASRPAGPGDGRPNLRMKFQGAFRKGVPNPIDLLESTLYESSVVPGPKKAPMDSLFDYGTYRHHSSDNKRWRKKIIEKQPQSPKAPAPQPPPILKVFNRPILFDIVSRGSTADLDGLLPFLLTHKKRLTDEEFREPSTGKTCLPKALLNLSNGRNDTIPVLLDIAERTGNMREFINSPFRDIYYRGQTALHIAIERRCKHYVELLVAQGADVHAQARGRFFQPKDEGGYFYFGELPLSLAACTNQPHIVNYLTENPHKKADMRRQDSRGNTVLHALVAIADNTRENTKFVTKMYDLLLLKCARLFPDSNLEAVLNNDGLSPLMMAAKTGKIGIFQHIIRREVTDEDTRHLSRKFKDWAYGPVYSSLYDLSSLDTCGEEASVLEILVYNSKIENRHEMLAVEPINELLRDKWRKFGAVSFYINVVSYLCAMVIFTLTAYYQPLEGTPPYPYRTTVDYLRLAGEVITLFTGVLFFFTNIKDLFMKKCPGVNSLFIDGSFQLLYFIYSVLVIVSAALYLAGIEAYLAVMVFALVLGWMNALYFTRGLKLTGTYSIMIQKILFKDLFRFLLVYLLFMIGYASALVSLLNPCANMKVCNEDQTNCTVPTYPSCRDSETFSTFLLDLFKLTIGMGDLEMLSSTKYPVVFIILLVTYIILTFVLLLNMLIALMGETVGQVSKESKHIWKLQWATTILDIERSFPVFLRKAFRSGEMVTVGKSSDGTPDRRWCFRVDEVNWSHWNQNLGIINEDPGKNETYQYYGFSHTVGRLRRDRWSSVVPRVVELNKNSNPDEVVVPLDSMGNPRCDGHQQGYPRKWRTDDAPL
T9 sequence (P22303 32-614): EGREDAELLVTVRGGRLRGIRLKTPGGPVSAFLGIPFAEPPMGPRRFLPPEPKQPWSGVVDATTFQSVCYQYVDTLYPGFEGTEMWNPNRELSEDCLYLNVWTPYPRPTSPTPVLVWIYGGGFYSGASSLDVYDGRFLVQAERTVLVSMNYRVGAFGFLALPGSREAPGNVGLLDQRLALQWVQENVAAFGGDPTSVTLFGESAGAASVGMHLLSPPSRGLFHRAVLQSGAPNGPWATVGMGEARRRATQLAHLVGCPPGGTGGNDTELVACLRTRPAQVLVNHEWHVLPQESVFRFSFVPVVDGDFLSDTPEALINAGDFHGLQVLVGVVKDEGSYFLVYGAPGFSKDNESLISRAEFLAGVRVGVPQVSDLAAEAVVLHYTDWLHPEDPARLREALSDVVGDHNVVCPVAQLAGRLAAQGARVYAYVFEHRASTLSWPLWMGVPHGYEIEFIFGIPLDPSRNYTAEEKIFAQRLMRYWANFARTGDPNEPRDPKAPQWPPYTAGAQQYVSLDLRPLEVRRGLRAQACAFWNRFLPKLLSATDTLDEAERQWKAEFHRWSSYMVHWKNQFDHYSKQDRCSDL

As to `CC(C)Oc1ccc(-c2ncc(CNc3ccnc(C(F)(F)F)c3)cn2)cc1Cl` [Compound 24], the 50% inhibitory concentration (IC50) in series [1] (PA14, 17 h, read-out: IC50 PA14, 2‐AA biosynthesis) was 386 nM; in series [1] (PA14, 17 h, read-out: IC50 PA14, HHQ biosynthesis) it was 233 nM; in series [1] (PA14, 17 h, read-out: IC50 PA14, HQNO biosynthesis), 347 nM; in series [1] (PA14, 17 h, read-out: IC50 PA14, PQS biosynthesis), 349 nM; in [1] (PA14, read-out: IC50 values for individual AQs) it was 160 to 453 nM; in [3], over 10000 nM. Further, the IC50 (in [4]; at TRPV4 channel) was over 30000 nM in each case. The half-life in series [2] turned out to be 50 min. The “BINDING (%)” value in the series on Na+ channel (site 2) is 57.2% and > 50%. Moreover, the inhibition at 10 µM at COX-1 (h) was 8.8%; at COX-2 (h), 19.1%; against Lck kinase (h), -6.8%; against PDE3A (h), 0.3%; at PDE4D2 (h) it was 6.7%; on acetylcholinesterase (h), -1.9%. The compound also registered a solubility (kinetic) at 5 min in series [5] of 47.2 µM (≈ 20 µg/mL).

Values taken from paper PMC9929129, “Towards Translation of PqsR Inverse Agonists: From In Vitro Efficacy Optimization to In Vivo Proof‐of‐Principle” (Advanced Science, 2023).
